Laboratory results: patent US20020065225A1, “Methods of determining altered NDPK functions and the diagnosis of cystic fibrosis” (priority 1999, published 2002)

Legend:
[1] = tested on: NDPK; test: Peptide-affinity column binding of human nasal membrane proteins, eluate labelled with [32P]ATP; conditions: wild-type human nasal epithelium membrane proteins, eluate slot blots exposed to [32P]ATP
Protocol: (§1) We speculated that this part of CFTR would associate with protein(s) from the chloride-sensitive phosphorylation cascade. We constructed peptides corresponding to the CFTR region encompassing position 508 of human CFTR. Membrane proteins from wild-type human nasal epithelium were incubated with either of two peptides corresponding to the wild-type or the ΔF508 mutant form of CFTR (KENIIFGVSYDEYR or KENIIGVSYDEYR, respectively) linked to an affinity matrix (^18). […] In order to generate sufficient material to characterise the bound protein(s), this experiment was repeated using the equivalent ovine wild-type CFTR peptide (KDNIIFGVSYDEYR) and membrane proteins from ovine tracheal epithelia (^18) Proteins eluted from this peptide column were phosphorylated with γ[^32P]ATP and separated by SDS-PAGE. […] In contrast, the failure of membrane-delimited UTP production in CF does provide an additional rationale for the administration of UTP in this disease.
18. Human nasal epithetium: Apical membrane proteins from human nasal epithelium were solubilised at 4° C. (10 mM KOH, 0.1% Tween), dialysed against PBS-Tween containing protease inhibitors (3 h) and spun at 150 000 g for 1 h. The supernatant was then re-circulated over affinity supports containing either synthetic peptide KENIIFGVSYDEYR or KENIIGVSYDEYR, corresponding to the F508 region of wild-type or […] mutant CFTR, respectively. The columns were washed with PBS-Tween (0.1%) and eluted with 1M KI. Fractions (40×1 ml) were slot blotted onto nitrocellulose under vacuum. The blots were washed in buffer A (10 mM MOPS pH 7.9, 1 mM MgCl2, 0.05% Triton X-100, 1 mM ATP) for 10 min and subsequently labelled with 5 nM γ[^32P]ATP (specific activity 222 TBq/mmol) in buffer A (1 h at room temperature). The blots were finally washed with PBS-Tween (0.1%) for 30 min (6 buffer changes) and visualised using electronic autoradiography. Sheep tracheal epithelia. The pelleted membranes from sheep tracheal epithelia were solubilised with 0.1% glucopyranoside in 50 mM HEPES pH 7.4 on ice for 1 h and centrifuged at 100 000×g for 30 min. […]

[2] = tested on: NDPK; test: Ovine CFTR peptide affinity column with ovine tracheal epithelial membrane proteins; type: binding, sheep; conditions: for Western blot of eluate with antibodies specific to NDPK: eluate from ovine CFTR peptide column; for phosphorylated species in eluate of peptide column (SDS-PAGE, electronic autoradiography): ovine tracheal membrane proteins, eluate phosphorylated with γ[32P]ATP
Protocol: as §1
18. Human nasal epithetium: Apical membrane proteins from human nasal epithelium were solubilised at 4° C. (10 mM KOH, 0.1% Tween), dialysed against PBS-Tween containing protease inhibitors (3 h) and spun at 150 000 g for 1 h. The supernatant was then re-circulated over affinity supports containing either synthetic peptide KENIIFGVSYDEYR or KENIIGVSYDEYR, corresponding to the F508 region of wild-type or […] mutant CFTR, respectively. The columns were washed with PBS-Tween (0.1%) and eluted with 1M KI. Fractions (40×1 ml) were slot blotted onto nitrocellulose under vacuum. The blots were washed in buffer A (10 mM MOPS pH 7.9, 1 mM MgCl2, 0.05% Triton X-100, 1 mM ATP) for 10 min and subsequently labelled with 5 nM γ[^32P]ATP (specific activity 222 TBq/mmol) in buffer A (1 h at room temperature). The blots were finally washed with PBS-Tween (0.1%) for 30 min (6 buffer changes) and visualised using electronic autoradiography. Sheep tracheal epithelia. The pelleted membranes from sheep tracheal epithelia were solubilised with 0.1% glucopyranoside in 50 mM HEPES pH 7.4 on ice for 1 h and centrifuged at 100 000×g for 30 min. The supernatant was applied to a peptide affinity column (KDNIIFGVSYDEYRC, corresponding to the F508 region of ovine wild-type CFTR, coupled to epoxy activated POROS 20 media using the additional terminal cysteine residue). The column was washed with load buffer containing 1M NaCl, followed by load buffer only (100 column volumes or stable OD280˜0.015). Bound proteins were eluted with 50 mM glycine-NaOH pH 11 containing 0.1% glucopyranoside and immediately neutralised with 1M Tris-HCl pH 8.0.

[3] = tested on: Anx I; test: Anx I phosphorylation in murine tracheal epithelium membrane and cytosol with ATP+GDP; type: biochemical, mouse
Text: Cyclic AMP controls both the membrane aggregating and the cation channel properties of Anx I via a proposed cAMP binding site^20. Because cAMP-dependent fluid secretion^22 and vesicle trafficking^2,3,22 are both disordered in CF airway and annexins share significant homology with the region of CFTR (amino acids 500-529) bearing the common disease mutation^7, we speculated that annexins may be involved in CF. […] We observed an absence of a 37 kDa phosphoprotein in plasma membranes from the airway of a CF mouse model, Cftr^tm1cam, which expresses no CFTR (FIG. 6a, quantitation FIG. 6e). We confirmed the identity of murine p37 as Anx I by immunoprecipitating pre-phosphorylated [^32P]p37 from wild type membranes using antibodies against Anx I (FIG. 5c). […] Because Anx I is a membrane-associated protein which shuttles between membrane and cytosol^26, we studied Anx I phosphorylation in cytosol from wild-type and Cftr^tm1Cam. In the absence of GDP and in contrast to the membrane, we found no differences in Anx I phosphorylation between wild-type and Cftr^tm1Cam cytosol (FIG. 6b; quantitation f). We confirmed the identity of cytosolic p37 as Anx I by immunoprecipitating pre-phosphorylated [^32P]p37 as described above (data not shown). […] It is possible that the excess protein results from a compensatory increase in synthesis to overcome a disruption of function. Excess Anx I protein is consistent with the elevated plasma concentrations of the calcium-dependent annexin binding proteins (S100A8 and A9 or CF antigen) in both CF carriers and patients^27. S100 proteins form obligate dimers^6 which bring together the N termini of different Anx I monomers to promote membrane-membrane fusion.
Swiss mice (wild-type) (6-10 weeks old) and mutant Cftr^tm1Cam mice^12 (4-12 weeks old) were used in this study. […]
As described previously^15. […] Pre-stained molecular weight markers were used to avoid staining and destaining of gels prior to imaging and quantification. The incorporation of ^32PO4 into individual protein bands was detected using electronic autoradiography (Canberra-Packard Instant Imager).

[4] = tested on: p37 (Anx I); conditions: cited from earlier work
[5] = tested on: annexin I; test: Inhibition of annexin I phosphorylation in a membrane preparation; type: biochemical
Protocol: Following pre-incubation with N^6-monobutyryladenosine 3′:5′ cyclic monophosphate (N^6-mbcAMP) (0-1 mM) at 4° C. for 30 min, a membrane preparation was phosphorylated with γ[^32P] ATP at 37° C. for 5 min.
As described previously^15. Phosphorylation and Electronic Autoradiography - Briefly, proteins were phosphorylated with either 37 kBq γ[^32P] ATP or GTP (final nucleotide concentration, 16 nM) in 10 mM MOPS pH 7.9 containing 5 mM DTT. The reaction was terminated by adding 5x Laemmli sample buffer (Laemmli (1970) Nature 227, 680-685) and the proteins separated by SDS-PAGE using 12.5% polyacrylamide gels. Pre-stained molecular weight markers were used to avoid staining and destaining of gels prior to imaging and quantification. The incorporation of ^32PO4 into individual protein bands was detected using electronic autoradiography (Canberra-Packard Instant Imager).

[6] = tested on: Anx I; test: Nature of the phospho-linkage on ovine [32P]Anx I; type: biochemical; conditions: data not shown
Protocol: Previously, annexins have been reported, to be phosphorylated on serine and tyrosine residues within the N-terminus by PKC and EGF receptor kinase, respectively^18 but acid hydrolysis (6 N HCl at 105° C., 2 h) of ovine [^32P]Anx I. (labelled for 5 min) removed>95% of the radioactivity from p37 (Anx I) (data not shown). Further analysis confirmed that this phospho-linkage was not on serine, threonine or tyrosine residues because it was acid labile (FIG. 5e, lanes 1 and 3), base stable (FIG. 5e, lane 2) and inhabitable following pre-incubation with diethylpyrocarbamate (modifies histidine residues, data not shown). […] To our knowledge, this is the first report in annexins. […] Histidine phosphorylation may regulate the proposed functions of the core—cation channel permeation^20 and/or membrane fusion^6,8.
As described previously^19. In order to determine the nature of the phosphate linkage on [^32-P]-annexin I, a membrane fraction was labelled with γ[^32P] GTP or γ[^32P] ATP for 5 min at 37° C. The reaction was terminated with 5x Laemmli sample buffer. Phosphorylated protein (10 μg) was then incubated at 30° C. for 10 min in reaction mixtures containing phosphorylation buffer alone, 0.1 N HCl (pH 1), 0.1 N NaOH (pH 13) or 0.8 M hydroxylamine-0.1 M acetate (pH 5.2). […]

Molecule: KENIIGVSYDEYR [synthetic peptide corresponding to the F508 region of ΔF508 mutant human CFTR]
- phosphorylatable protein bound by and eluted from peptide-affinity column [1]: No phosphorylation was observed

Molecule: KDNIIFGVSYDEYR [equivalent ovine wild-type CFTR peptide; coupled to the column via an additional terminal cysteine]
- Western blot of eluate with antibodies specific to NDPK [2]: detected a 21 kDa protein, indicating the presence of NDPK
- Western blot of eluate with antibodies specific to NDPK ([2]; listed as ovine CFTR peptide): detected a 21 kDa protein
- phosphorylated species in eluate of peptide column (SDS-PAGE, electronic autoradiography) [2]: a 19/21 kDa doublet was the sole phosphorylated species in the eluate
- phosphorylated species in eluate of peptide column (SDS-PAGE, electronic autoradiography) ([2]; listed as ovine CFTR peptide): showed a 19/21 kDa phosphoprotein

Molecule: KENIIFGVSYDEYR [synthetic peptide corresponding to the F508 region of wild-type human CFTR]
- phosphorylatable protein bound by and eluted from peptide-affinity column [1]: bound protein(s) that could be phosphorylated
- phosphorylatable protein bound by and eluted from peptide-affinity column ([1]; listed as wild-type peptide): a phosphoprotein was observed in fraction 22

Molecule: Nc1nc2c(ncn2[C@@H]2O[C@H](COP(=O)(O)OP(=O)(O)O)[C@@H](O)[C@H]2O)c(=O)[nH]1 [GDP]
- effect on Anx I phosphorylation, Cftr^tm1Cam cytosol ([3]; Cftr^tm1Cam cytosol, GDP added to γ[32P]ATP): partial restoration of Anx I phosphorylation
- effect on histidine phosphorylation of Anx I, Cftr^tm1Cam membranes ([3]; Cftr^tm1Cam membranes, ATP+GDP): failed to either restore or enhance
- effect on Anx I phosphorylation, wild type membranes ([3]; wild type murine membranes, γ[32P]ATP+GDP): enhancement was also observed
- enhancement of phosphorylation of the 37 kDa protein ([4]; ATP (50 nM)+GDP (500 nM), 37° C., 5 min (ref 15)): 20 fold
- effect on p37 (Anx I) phosphorylation ([4]; previously found (ref 15)): enhanced

Molecule: Nc1ncnc2c1ncn2[C@@H]1O[C@@H]2COP(=O)(O)O[C@H]2[C@H]1O [cyclic AMP]
- inhibition of p37 phosphorylation ([5]; observed whilst characterising NDPK): inhibiton of p^37 phosphorylation

Molecule: CCOC(=O)OC(=O)OCC [diethylpyrocarbamate]
- effect of pre-incubation on Anx I phospho-linkage [6]: inhabitable

Molecule: CCCC(=O)Nc1ncnc2c1ncn2[C@@H]1O[C@@H]2COP(=O)(O)O[C@H]2[C@H]1O [N^6-mbcAMP, N^6-monobutyryladenosine 3′:5′ cyclic monophosphate]
- concentration of maximal inhibition of (histidine) phosphorylation of annexin I ([5]; pre-incubation 0-1 mM, 4° C., 30 min, γ[32P]ATP 37° C., 5 min): 1 mM
